# How the values were obtained:
# RAW264.7 cells = assay: Inflammatory cytokine mRNA expression (quantitative RT-PCR) in RAW264.7 cells; type: cell-based, mouse
# Method: (§1) RAW264.7 cells were a gift from Jason A. Wertheim MD, PhD. HepG2 and HEK293T cells were obtained from ATCC. RAW264.7, HEK293T, and HepG2 cells were cultured in Dulbecco's Modified Eagle's Medium (DMEM) (Corning) supplemented with 10% FBS (Atlanta Biologicals), 2 mM glutamine (HyClone), and 1 mM sodium pyruvate (Corning). […]
# (§2) RNA was isolated from cells or tissues using RNA-STAT60 (Teltest) followed by chloroform extraction and precipitation. Reverse transcription was carried out using qScript cDNA Synthesis Kit (Quanta Bio). The resulting cDNA was amplified quantitatively using PerfeCTa SYBR Green Mix (Quanta Bio) on a 7500 Fast Real-time PCR System (Applied Biosystems). The relative gene expression was determined using differences in Ct values between gene of interest and house-keeping control genes. Complete list of primers can be found in Key Reagents Table (Table 1).
# HK1 = biological target: T1, HK1 (Mus musculus, UniProt P17710); assay: Immunofluorescence of HK1 and mitochondria (MT-Red) with colocalization analysis; type: cell-based; conditions: WT BMDMs; CLT (20 μM)
# T1 construct: IF of HK1 and mitochondria (MT-Red) imaging in RAW264.7 cells±clotrimazole (CLT) (20 μM); endogenous in cells; the running text says WT BMDMs
# T1 sequence (P17710 1-918 isoform P17710-3): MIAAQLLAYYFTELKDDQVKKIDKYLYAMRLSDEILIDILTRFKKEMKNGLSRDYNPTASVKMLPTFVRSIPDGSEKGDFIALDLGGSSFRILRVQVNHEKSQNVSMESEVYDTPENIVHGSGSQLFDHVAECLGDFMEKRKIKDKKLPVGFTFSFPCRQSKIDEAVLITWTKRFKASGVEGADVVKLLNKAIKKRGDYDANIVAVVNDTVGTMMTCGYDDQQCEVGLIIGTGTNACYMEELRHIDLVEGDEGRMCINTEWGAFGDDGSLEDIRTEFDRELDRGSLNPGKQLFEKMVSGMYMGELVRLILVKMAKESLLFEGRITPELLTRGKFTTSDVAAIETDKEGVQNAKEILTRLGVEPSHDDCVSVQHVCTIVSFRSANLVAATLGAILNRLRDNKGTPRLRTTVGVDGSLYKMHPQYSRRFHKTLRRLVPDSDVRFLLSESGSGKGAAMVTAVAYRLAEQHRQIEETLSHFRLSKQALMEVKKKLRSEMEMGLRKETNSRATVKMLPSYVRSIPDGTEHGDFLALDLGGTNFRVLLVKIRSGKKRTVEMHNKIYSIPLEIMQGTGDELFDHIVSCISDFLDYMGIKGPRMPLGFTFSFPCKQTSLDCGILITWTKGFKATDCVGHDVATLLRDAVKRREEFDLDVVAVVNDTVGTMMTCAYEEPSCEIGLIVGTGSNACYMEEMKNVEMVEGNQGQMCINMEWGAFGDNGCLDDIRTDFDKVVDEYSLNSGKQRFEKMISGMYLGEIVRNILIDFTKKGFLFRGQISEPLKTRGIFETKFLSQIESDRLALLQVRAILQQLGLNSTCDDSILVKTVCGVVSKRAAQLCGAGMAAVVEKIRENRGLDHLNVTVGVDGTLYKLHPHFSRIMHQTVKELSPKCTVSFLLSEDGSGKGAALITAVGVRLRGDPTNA
# Method: Glass-bottom confocal dishes (35 mm; VWR) were coated with 60 nM fibronectin (Sigma-Aldrich), diluted in 0.1% gelatin overnight. Before plating cells, coated confocal dishes were washed twice with PBS. BMDMs (100,000 cells/well), PMs (100,000 cells/well), HepG2 (50,000 cells/well), or RAW264.7 (50,000 cells/well) cells were plated in their respective growth media (complete DMEM or RPMI) and allowed to settle overnight before immunofluorescence (IF) staining. For fixed cell immunofluorescence (IF), cells were plated in 6-well plates (Corning) containing 15 mm glass coverslips (Fisher-Scientific) coated in gelatin and fibronectin. Prior to fixation, growth media was removed and cells were washed 2× with PBS. Cells were fixed with 1 ml of ice-cold 4% formaldehyde for 10 min at room temperature (4% formaldehyde prepared from 16% stock and diluted in PBS). After fixing the cells, plates were washed with PBS 2× and permeabilized with 0.3% triton-X-100 in PBS for 10 min at room temperature. Then, cells were blocked with 10% FBS/PBS for 1 hour at room temperature and subsequently treated with primary antibody diluted in 10% FBS/PBS solution over-night. The next day, secondary antibody was diluted in 10% FBS/PBS at 1:1000 and incubated for 2 hrs at room temperature. […] Images were quantified using ImageJ.
# GAPDH = GAPDH (Mus musculus, UniProt P16858); assay: GAPDH activity normalized to total protein in RAW264.7 cells; type: cell-based; design: endogenous in cells; host or cells: RAW264.7; conditions: ±CLT (20 μM)
# Sequence of GAPDH (P16858 whole entry): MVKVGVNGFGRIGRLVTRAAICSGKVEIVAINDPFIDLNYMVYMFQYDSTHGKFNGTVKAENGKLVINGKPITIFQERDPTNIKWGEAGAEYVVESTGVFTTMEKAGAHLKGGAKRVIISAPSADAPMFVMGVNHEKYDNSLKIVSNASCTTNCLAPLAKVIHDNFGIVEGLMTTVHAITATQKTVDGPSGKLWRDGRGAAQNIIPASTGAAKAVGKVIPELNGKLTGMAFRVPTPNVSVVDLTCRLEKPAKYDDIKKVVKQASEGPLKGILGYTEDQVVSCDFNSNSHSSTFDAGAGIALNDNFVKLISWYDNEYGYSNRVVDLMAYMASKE
# Method: as §1
# (§3) The following kits were used according to the manufacturer's instructions: Promega NADP/NADPH quantification kit (G9081) and […] (G9071); Glyceraldehyde-3-Phosphate Dehydrogenase Activity Assay kit (abcam); ELISAs for IL-1β (DY401), IL-6 […].
# BMDMs = assay: Inflammatory cytokine mRNA expression (quantitative RT-PCR) in BMDMs; type: cell-based, mouse
# Method: (§4) BMDMs were isolated from ΔE1HK1 and WT mice as previously reported (Rodriguez et al., 2019). Briefly, bone marrow was isolated from the tibia and femur of 8-10-week-old mice by puncturing one end of the femur and tibia with a 27g needle and placing it in a 0.5 ml tube with a hole punched in the bottom. The 0.5 ml tube containing the bone was then placed in a 1.75 ml tube and centrifuged at 5,000×g for 3.5 minutes. Bone marrow was then collected into the 1.75 ml tube and resuspend in 1 ml of RBC lysis buffer (abcam) for 1 minute and then transferred to a 50 ml tube with 4 ml RBC lysis buffer and incubated for 4 minutes. Next, 35 ml of PBS was added and centrifuged at 300×g for 5 min and supernatant was then decanted and cell pellet was re-suspended in complete RPMI with 20 ng/ml mCSF (Preprotech). Cells were counted using a hemocytometer and plated in 10 cm tissue culture plates at a density of 3-million cells/plate. Cells were cultured with 20 ng/mL mCSF to induce differentiation into BMDMs. Media was changed every 2 days and BMDMs were harvested by scraping on day 6 and plated in 12 well plates at a density of 1-million cells/well for mRNA extraction experiments. BMDMs were stimulated in the same manner as peritoneal macrophages (LPS dose for BMDMs was 200 ng/ml).
# as §2
# BMDMs from ΔE1HK1 mice = assay: IL-1β ELISA from BMDM media; type: cell-based, mouse; conditions: 4 hrs LPS (200 ng/ml) ± 6AN (1 mM) or OT (50 μM), then 30 min ATP (2.5 mM)
# Method: as §4, with “Cells were cultured with 20 ng/mL mCSF to induce differentiation into BMDMs. Media was changed every 2 days and BMDMs were harvested by scraping on day 6 and plated in 12 well plates at a density of 1-million cells/well for mRNA extraction experiments. BMDMs were stimulated in the same manner as peritoneal macrophages (LPS dose for BMDMs was 200 ng/ml).” left out
# […] Cell supernatant was collected and analyzed by ELISA according to manufacturer's instructions for IL-1β (DY401), IL-6 (DY406), and TNFα (DY410).
# as §3
# [1] = CLT (20 μM) treated cells vs vehicle treated controls
# [2] = 4 hr 6AN (1 mM) or OT (50 μM), ±LPS (200 ng/ml)
# [3] = 16 hrs IFNγ priming, then 4 hrs LPS (200 ng/ml) ± 6AN (1 mM) or OT (50 μM)
# [4] = RAW264.7 cells, koningic acid, LPS
smiles,measurement,setting,value
"Clc1ccccc1C(c1ccccc1)(c1ccccc1)n1ccnc1 [CLT, Clotrimazole]",IL-1β mRNA after LPS stimulation,RAW264.7 cells; [1],significant increase
same,IL-6 mRNA after LPS stimulation,RAW264.7 cells; [1],significant increase
same,TNFα mRNA after LPS stimulation,RAW264.7 cells; [1],significant increase
same,cytokine mRNA levels at baseline,"RAW264.7 cells; CLT (20 μM), no LPS",minimal change
same,"production of inflammatory cytokines including IL-1β, TNFα, and IL-6",RAW264.7 cells; macrophages in vitro (summary statement),elevated production
same,HK1 dislocation from the mitochondria,HK1,significant increase
same,GAPDH activity in RAW264.7 cells after LPS treatment,GAPDH,significant decrease
"Cc1ncc(C[n+]2csc(CCO)c2C)c(=O)[nH]1 [OT, oxythiamine]",increase in IL-1β mRNA levels in BMDMs of ΔE1HK1 mice,BMDMs; [2],abolished
same,increase in IL-6 mRNA levels in BMDMs of ΔE1HK1 mice,BMDMs; [2],abolished
same,increase in IL-1β mRNA levels in IFN-γ primed BMDMs of ΔE1HK1 mice,BMDMs; [3],rescued
same,increase in IL-6 mRNA levels in IFN-γ primed BMDMs of ΔE1HK1 mice,BMDMs; [3],rescued
same,"IL-1β protein release (ELISA), higher release in ΔE1HK1 BMDMs",BMDMs from ΔE1HK1 mice,reversed
CC(C)[C@H]1CC[C@@]2(CO2)[C@H]2C(=O)OCC(C(=O)O)=C[C@H]12 [koningic acid],IL-1β mRNA expression after LPS treatment,RAW264.7 cells; [4],increased
same,IL-6 mRNA expression after LPS treatment,RAW264.7 cells; [4],increased
same,TNFα mRNA expression after LPS treatment,RAW264.7 cells; [4],increased

# From patent publication US20240216336A1, “CLOTRIMAZOLE AS A TREATMENT FOR IMMUNODEFICIENCY DISORDERS” (Northwestern University, priority 2020, published 2024)
